One assay has as its target T1, human sGC (Homo sapiens, UniProt Q02153).
T1 construct: expressed in transfected cells; host or cells: CHO-K1 (Chinese hamster ovary) cells
T1 sequence (Q02153 1-619): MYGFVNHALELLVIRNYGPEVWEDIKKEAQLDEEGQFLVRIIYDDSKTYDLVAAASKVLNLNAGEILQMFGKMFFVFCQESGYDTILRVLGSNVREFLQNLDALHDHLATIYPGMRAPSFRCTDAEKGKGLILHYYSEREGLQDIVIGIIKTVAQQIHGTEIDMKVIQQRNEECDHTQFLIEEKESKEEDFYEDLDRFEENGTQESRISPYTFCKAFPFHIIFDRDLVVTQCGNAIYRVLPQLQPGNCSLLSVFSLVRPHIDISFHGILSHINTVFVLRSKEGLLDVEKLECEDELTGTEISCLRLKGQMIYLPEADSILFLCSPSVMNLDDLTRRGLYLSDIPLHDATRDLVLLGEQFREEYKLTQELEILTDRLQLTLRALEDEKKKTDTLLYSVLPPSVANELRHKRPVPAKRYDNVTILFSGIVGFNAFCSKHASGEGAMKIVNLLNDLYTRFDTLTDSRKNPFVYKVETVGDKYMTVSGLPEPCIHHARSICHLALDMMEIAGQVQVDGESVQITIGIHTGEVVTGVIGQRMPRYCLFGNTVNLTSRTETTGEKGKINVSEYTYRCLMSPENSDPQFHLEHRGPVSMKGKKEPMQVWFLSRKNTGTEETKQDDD
T1 sequence (Q02108 1-690 partner): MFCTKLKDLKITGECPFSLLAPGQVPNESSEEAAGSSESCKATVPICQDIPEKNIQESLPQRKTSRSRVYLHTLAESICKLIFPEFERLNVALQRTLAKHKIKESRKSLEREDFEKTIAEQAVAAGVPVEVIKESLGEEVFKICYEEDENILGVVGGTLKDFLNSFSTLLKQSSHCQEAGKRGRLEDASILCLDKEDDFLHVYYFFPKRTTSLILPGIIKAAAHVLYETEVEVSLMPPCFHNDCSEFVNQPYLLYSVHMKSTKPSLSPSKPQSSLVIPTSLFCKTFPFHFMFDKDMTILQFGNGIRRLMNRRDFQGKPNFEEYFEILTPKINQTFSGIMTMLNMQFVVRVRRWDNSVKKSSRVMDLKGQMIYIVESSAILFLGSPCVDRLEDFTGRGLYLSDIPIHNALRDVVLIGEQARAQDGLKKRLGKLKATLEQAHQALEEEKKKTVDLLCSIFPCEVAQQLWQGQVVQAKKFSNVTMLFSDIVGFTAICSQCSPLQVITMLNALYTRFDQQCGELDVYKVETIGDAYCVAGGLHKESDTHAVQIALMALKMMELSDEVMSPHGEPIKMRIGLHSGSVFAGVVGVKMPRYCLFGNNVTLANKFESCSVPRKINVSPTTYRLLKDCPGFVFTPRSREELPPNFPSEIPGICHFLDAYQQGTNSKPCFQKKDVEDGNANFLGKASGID
The experiment in a line: Maximum effect of sGC activation (intracellular Ca2+, Fura2-AM) in CHO-K1 cells stably expressing human sGC and mouse CNGA2. Type of assay: cell-based. Conditions: increase rate of sGC activity vs DMSO control, test compound 10 μmol/L. As for the experimental part: For the assay, chinese hamster ovary cells (CHO-K1 cells) stably expressing both α and β subunits of human sGC and mouse cyclic nucleotide-gated channel (CNGA2) were used.
The CHO-K1 cells stably expressing human sGC and mouse CNGA2 was cultured at 37° C. on F-12 medium containing 10% (v/v) fetal bovine serum (FBS), penicillin (100 U/mL), streptomycin (100 μg/mL), G418 (250 μg/mL) and Zeocin (250 μg/mL). The cells were suspended in a culture medium, seeded on a 96 well plate, and then cultured at 37° C. for 24 hours. The cells were washed with Assay buffer 1 (140 mmol/L sodium chloride, 5 mmol/L potassium chloride, 0.5 mmol/L magnesium chloride, 0.01 mmol/L calcium chloride, 10 mmol/L glucose, 0.4 mmol/L magnesium sulfate, 10 mmol/L 4-(2-hydroxyethyl)piperazin-1-ylethanesulfonic acid and 125 μmol/L sulfinpyrazone, pH 7.4), and then added a solution containing Fura2-AM, a fluorescent Ca^2+ indicator, in Assay buffer 1 at […] concentration thereto as an indicator solution, and cultured at 37° C. for 60 minutes. The culture medium was removed, and the cells were washed with Assay buffer 1, and then added a solution containing the test compound thereto, and cultured at room temperature for 10 minutes. A plate was placed onto a fluorometer (FlexStation II, Molecular Devices), and the intracellular calcium concentration was determined as the ratio of fluorescent intensity, obtained from measurement using 340 nm and 380 nm as excitation wavelength and 510 nm as detection wavelength.
The solution of the test compound was prepared by dissolving each test compound in DMSO at 10 mmol/L, and then diluting the solution for the test concentration at 10 μmol/L with Assay buffer (140 mmol/L sodium chloride, 5 mmol/L potassium chloride, 0.5 mmol/L magnesium chloride, 1 mmol/L calcium chloride, 10 mmol/L glucose, 0.4 mmol/L magnesium sulfate, 10 mmol/L 4-(2-hydroxyethyl)piperazin-1-ylethanesulfonic acid, […] sulfinpyrazone, 100 μmol/L isobutyl methyl xanthine, and 10 μmol/L 1H-[1,2,4]-oxadiazol[4,3-a]quinoxaline-1-one (hereinafter, ODQ), pH 7.4). The evaluation in the absence of ODQ was performed similarly, except that ODQ was not added to Assay buffer 2. As a control solution, a DMSO solution was used instead of the test compound solution.
The activity of the test compound defined as the increase rate of the sGC activity (%) at the time of adding the solution of the test compound with respect to the sGC activity at the time of adding the control solution, was calculated by dividing the fluorescent intensity ratio at the time of adding the test compound by the fluorescent intensity ratio of the control solution, and subtracting the sGC activity at the time of adding the control solution (100%).
If sGC is activated in this assay, intracellular cGMP concentration increases and accordingly intracellular Ca^2+ concentration is increased by opening of CNGA2. Accordingly, sGC activation can be measured as the change of Ca^2+ concentration in the cell. […] Accordingly, it is possible to evaluate maximum sGC activation effect including heme-dependent activation in the absence of ODQ, and also possible to evaluate heme independent sGC activation effect in the presence of ODQ.

Another assay relates to rat ventral aorta. The experiment in a line: Blood vessel relaxation activity, phenylephrine-contracted rat ventral aorta ring specimen. Conditions: relaxation of 1 μmol/L phenylephrine contraction; EC50 without ODQ / EC50 with 10 μmol/L ODQ. On the procedure:
A representative compound of the present invention was assayed for blood vessel relaxation activity according to the Test Example described below. In the assay, a rat (male, SD) was phlebotomized from the upper part of the heart under pentobarbital (30 mg/kg) anesthesia, and the ventral aorta was extracted. The connective tissue adhering around the blood vessel in the ventral aorta was removed in an ice-cooled Krebs-Henseleit solution (KH solution) (118 mmol/L sodium chloride, 4.7 mmol/L potassium chloride, 1.2 mmol/L magnesium sulfate, 1.2 mmol/L potassium dihydrogenphosphate, 25 mmol/L sodium hydrogen carbonate, 2.5 mmol/L calcium chloride and 10 mmol/L glucose, pH 7.4). Then, a ring specimen of 2 mm length was prepared, and fixed in 5 mL organ bath filled with the KH solution. The KH solution was maintained at 37° C., and a mixed gas of 95% O2 and 5% CO2 was ventilated. The specimen was stabilized with 1 g of the resting tension for 1 hour. In the meantime, the KH solution was exchanged twice. The tension of the specimen was recorded with a multichannel recorder through a pickup and an amplifier. After stabilization of the specimen, contraction was induced with 1 μmol/L phenylephrine (Phe), and cumulative administration of each compound (0.001, 0.01, 0.03, 0.1, 0.3, 1, 3, 10, 30, 100, 1000, 10000 nmol/L) was carried out. In the case of evaluation at the time of containing ODQ, 10 μmol/L ODQ was added 10 minutes before administration of Phe, and similar evaluation was performed.
EC50 value was calculated by Four-parameter Logistic Model with Assay Explorer (Accelrys, Inc.). Meanwhile, the solution of the test compound was prepared by dissolving the compound in DMSO to prepare solutions having the concentration of each test compound 1000 times higher than the final concentration.

Setting [1] is: 10 μmol/L ODQ present, read-out: Emax (%) ODQ+ (Heme-independent).
[2] abbreviates: absence of ODQ, read-out: Emax (%) ODQ− (Heme-dependent).

SMILES strings stand for the structures. Like-named read-outs stand apart in the source and are kept apart here.

As for `O=C(O)CCCCN(Cc1ccc(C(=O)O)cc1)CC(OCc1ccc(CCc2ccccc2)cc1)c1ccsc1` (stereo not drawn) [Example 26, 4-{[N-(4-Carboxybutyl)-N-[2-[4-(2-phenylethyl)benzyloxy]-2-(3-thienyl)ethyl]amino]methyl}benzoic acid], the maximal response (Emax) at 10 µM was determined as 110% on human sGC (setting [1]) and 92.6% on human sGC (setting [2]). Moreover, the “EC50 Ratio (ODQ−/ODQ+)” value with rat ventral aorta was found to be 7.72.
The corresponding values for `Cc1ccc(C(CN(CCCCC(=O)O)Cc2ccc(C(=O)O)c(F)c2)OCc2ccc(CCc3ccccc3)cc2)s1` (stereo not drawn) [Example 28, 4-{[N-(4-Carboxybutyl)-N-[2-[4-(2-phenylethyl)benzyloxy]-2-(5-methyl-2-thienyl)ethyl]amino]methyl}-2-fluorobenzoic acid] are 114%, 98% and 2.99.
On the same counts, the results for `Cc1cccc(C(CN(CCCCC(=O)O)Cc2ccc(C(=O)O)cc2)OCc2ccc(CCc3ccccc3)cc2)c1` (stereo not drawn) [Example 23, 4-{[N-(4-Carboxybutyl)-N-[2-(3-methylphenyl)-2-[4-(2-phenylethyl)benzyloxy]ethyl]amino]methyl}benzoic acid] are 113%, 132% and 6.88.
The corresponding values for `O=C(O)CCCCN(Cc1ccc(C(=O)O)cc1)C[C@H](OCc1ccc(CCc2ccccc2)cc1F)c1ccccc1` [Example 45, (−)-4-{[N-(4-Carboxybutyl)-N-[(2R)-2-[2-fluoro-4-(2-phenylethyl)benzyloxy]-2-phenylethyl]amino]methyl}benzoic acid] are 123%, 109% and 4.26.
`O=C(O)CCCCN(Cc1ccc(C(=O)O)cc1)CC(OCc1ccc(CCc2ccccc2)s1)c1ccccc1` (stereo not drawn) [Example 25, 4-{[N-(4-Carboxybutyl)-N-[2-[5-(2-phenylethyl)thiophen-2-ylmethoxy]-2-phenylethyl]amino]methyl}benzoic acid]: the Emax at 10 µM on human sGC (setting [1]) was determined as 114%; on human sGC (setting [2]), 130%. In addition, in the assay on rat ventral aorta, the “EC50 Ratio (ODQ−/ODQ+)” value worked out at 2.61.
The corresponding values for `CC(C)(CCCN(Cc1ccc(C(=O)O)cc1)CC(OCc1ccc(CCc2ccccc2)cc1)c1ccccc1)C(=O)O` (stereo not drawn) [Example 16, 4-{[N-(4-Carboxy-4-methylpentyl)-N-[2-[4-(2-phenylethyl)benzyloxy]-2-phenylethyl]amino]methyl}benzoic acid] are 132%, 92.4% and 8.31.
The corresponding values for `O=C(O)CCCCN(Cc1ccc(C(=O)O)cc1)CC(OCc1ccc(CCc2ccccc2)cc1)c1ccc(Cl)s1` (stereo not drawn) [Example 27, 4-{[N-(4-Carboxybutyl)-N-[2-[4-(2-phenylethyl)benzyloxy]-2-(5-chloro-2-thienyl)ethyl]amino]methyl}benzoic acid] are 118%, 187% and 2.66.
On the same counts, the results for `O=C(O)CCCCN(Cc1ccc(C(=O)O)cc1)CC(OCc1ccc(CCc2ccccc2)cc1)c1ccccc1` (stereo not drawn) [Example 2, 4-{[N-(4-Carboxybutyl)-N-[2-[4-(2-phenylethyl)benzyloxy]-2-phenylethyl]amino]methyl}benzoic acid] are 102%, 130% and 3.26.
As to `O=C(O)CCCCN(Cc1ccc(C(=O)O)cc1)C[C@H](OCc1ccc(Oc2ccc(Cl)cc2)cc1)c1ccccc1` [Example 42, (−)-4-{[N-(4-Carboxybutyl)-N-[(2R)-2-[4-(4-chlorophenyloxy)benzyloxy]-2-phenylethyl]amino]methyl}benzoic acid], the values for the Emax at 10 µM on human sGC (setting [1]) and at human sGC (setting [2]) were 127% and 143%, respectively. The “EC50 Ratio (ODQ−/ODQ+)” value in the assay on rat ventral aorta was 8.40.
The corresponding values for `O=C(O)CCCCN(Cc1ccc(C(=O)O)cc1)C[C@H](OCc1ccc(CCc2ccccc2)cc1)c1ccccc1` [Example 32, (−)-4-{[N-(4-Carboxybutyl)-N-[(2R)-2-[4-(2-phenylethyl)benzyloxy]-2-phenylethyl]amino]methyl}benzoic acid] are 87.7%, 128% and 7.31.
The corresponding values for `O=C(O)CCCCN(Cc1ccc(C(=O)O)cc1)C[C@H](OCc1ccc(CCc2ccccc2)cc1)c1cccc(Cl)c1` [Example 29, (−)-4-{[N-(4-Carboxybutyl)-N-[(2R)-2-(3-chlorophenyl)-2-[4-(2-phenylethyl)benzyloxy]ethyl]amino]methyl}benzoic acid] are 110%, 98.2% and 9.66.

Values taken from patent US9714213B2, “4-aminomethylbenzoic acid derivative” (TOA EIYO LTD., priority 2013, dated 2017).
